Results taken from article PMC11125453, “A Novel 2-Methoxyestradiol Derivative: Disrupting Mitosis Inhibiting Cell Motility and Inducing Apoptosis in HeLa Cells In Vitro” (Pharmaceutics, 2024).

What was measured:
[1] = molecular target: T1, ERα (Homo sapiens, UniProt P03372); assay: Estrogenic activity luciferase reporter assay in T47D-ERE-Luc^Neo; type: cell-based; details: 24 h incubation, read-out: EC50, oestrogenic activity (transcriptional activity of oestrogen-responsive luciferase reporter)
T1 construct: T47D-ERE-Luc^Neo, an ERα-positive cell line, stably transfected with a luciferase reporter cassette; endogenous in cells; host or cells: T47D-ERE-Luc^Neo
T1 sequence (P03372 1-595): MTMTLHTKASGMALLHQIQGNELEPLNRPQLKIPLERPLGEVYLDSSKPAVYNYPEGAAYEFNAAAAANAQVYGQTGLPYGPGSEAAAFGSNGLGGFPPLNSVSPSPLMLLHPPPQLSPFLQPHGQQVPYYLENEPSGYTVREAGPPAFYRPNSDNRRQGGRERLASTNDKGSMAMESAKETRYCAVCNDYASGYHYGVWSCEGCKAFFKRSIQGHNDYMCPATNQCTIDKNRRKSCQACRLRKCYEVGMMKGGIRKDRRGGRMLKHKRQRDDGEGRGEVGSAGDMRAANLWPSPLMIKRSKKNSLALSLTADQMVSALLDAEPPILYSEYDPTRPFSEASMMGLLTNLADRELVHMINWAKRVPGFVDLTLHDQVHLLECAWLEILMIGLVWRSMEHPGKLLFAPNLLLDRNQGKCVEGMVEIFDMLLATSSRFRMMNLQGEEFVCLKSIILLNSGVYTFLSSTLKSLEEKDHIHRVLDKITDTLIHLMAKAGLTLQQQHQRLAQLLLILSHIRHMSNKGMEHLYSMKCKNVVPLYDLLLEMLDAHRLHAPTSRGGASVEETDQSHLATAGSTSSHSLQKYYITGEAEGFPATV
Method: The in vitro oestrogenic activity of our test compound was determined by utilizing the T47D-ERE-Luc^Neo, an ERα-positive cell line, stably transfected with a luciferase reporter cassette. On the first day of the experiment, cells were seeded onto 96-well microplates in a density of 50,000 cells/well. After 72 h of incubation, the medium was changed to phenol red-free RPMI, containing 10% charcoal-stripped FBS. This step was repeated for another four consecutive days to deplete the intracellular oestrogen content. […]. After 24 h of incubation, the supernatant was removed from the wells and the One-Glo™ firefly luciferase reagent was added according to the manufacturer’s instructions (Promega Corp., Madison, WI, USA). Following a 5 min incubation period, the luciferase enzyme activity was measured using a luminometer (FLUOstar OPTIMA, BMG Labtech GmbH, Ortenberg, Germany). Each concentration was assayed in triplicates, repeated twice. Relative luminescence units (RLU) were normalised to percentage values, and sigmoidal concentration–response curves were fitted to the data points using GraphPad Prism 9.5.1 (GraphPad Software, San Diego, CA, USA).

[2] = test system: NIH/3T3 cells; assay: Growth inhibition on non-cancerous mouse fibroblast cells, previous study; type: cell-based; details: ratio of IC50 values of NIH/3T3 and HeLa
[3] = test system: T47D cells; assay: MTT assay, growth inhibition of T47D, 72 h; type: cell-based; details: Homo sapiens, 72 h incubation
Method: The extent of the inhibition of cell proliferation by the test compound was determined using the MTT (3-(4,5-dimethylthiazol-2-yl)-2,5-diphenyltetrazolium bromide) assay. Exponentially growing HeLa cells were seeded into 96-well plates at a density of 1.0 × 10^4 cells per well in 100 µL of media and incubated for 24 h to facilitate cell attachment. Subsequently, the cells were treated with test compounds formulated in 100 µL of media at six different concentrations of compounds ranging, from 0.1 to 30 µmol. The control group received only media treatment. After 24 h of incubation, 22 µL of MTT solution (5 mg/mL in PBS; Duchefa Biochemie BV, Haarlem, The Netherlands) was added and incubated for 4 h at 37 °C in a humidified 5% CO2 environment. […] Absorbance measurements were taken at 545 nm using a microplate UV-VIS reader (SPECTRO star Nano, BMG Labtech GmbH, Offenburg, Germany), followed by the calculation of the percentage cell viability using the GraphPad Prism 5.01 (GraphPad Software, San Diego, CA, USA). […]
The MTT assay was conducted as described in Section 2.5, with the incubation time extended to 72 h. IC50 values were determined by fitting sigmoidal concentration–response curves using GraphPad Prism 9.5.1 (GraphPad Software, San Diego, CA, USA). […]

[4] = test system: MCF7 cells; assay: MTT assay, growth inhibition of MCF7, 72 h; type: cell-based; details: Homo sapiens, 72 h incubation
[5] = test system: HeLa cells; assay: Wound-healing assay; type: cell-based, human; details: 5.0 µM
Method: Due to the significant contribution of cell motility to tumour metastasis, we performed a wound-healing assay, utilizing a 2D model, to explore the antimigratory potential of compound 4a on HeLa cells. Special silicon inserts (Ibidi GmbH, Gräfelfing, Germany) were utilised, with 50,000 cells per well implanted on 12-well plates in a standard EMEM medium supplemented with 10% FBS. Following overnight incubation, the inserts were carefully removed, and the confluent monolayers were washed with PBS. Cells were then treated with sub-antiproliferative concentrations (1.0, 2.5 and 5.0 µM) of compound 4a in the EMEM medium containing 2% FBS. Images were then captured at 0, 24, and 48 h post-treatment using a Nikon Eclipse TS100 fluorescence microscope (Nikon Instruments Europe, Amstelveen, The Netherlands). Untreated cells served as the control, and the rate of wound closure (the decrease in size of the gaps devoid of cells) was measured using ImageJ software v1.54 (National Institutes of Health, Bethesda, MD, USA).

[6] = test system: HeLa cells; assay: Boyden chamber invasion assay; type: cell-based, human; details: 5.0 µM, 24 h
Method: Compound 4a’s capacity to inhibit tumour invasion was assessed using the Boyden chamber assay, a three-dimensional model, on a profoundly invasive HPV-18 positive cell line. The polyethylene terephthalate (PET) membrane (8 μm pore size) and the thin layer of the matrigel basement matrix in special Boyden chamber inserts (BioCoat™ Matrigel® Invasion Chambers, Corning Inc., Corning, NY, USA) were prehydrated (2 h, serum-free EMEM) and placed onto a 24-well plate. The cell suspension (50,000 cells/insert in 500 μL) prepared in the serum-free EMEM with sub-antiproliferative concentrations (1.0, 2.5, and 5.0 μM) of 4a was nested in the upper compartments. Untreated cells were used as controls, with the EMEM medium supplemented with 10% FBS, and served as a chemoattractant in the lower chambers. After 24 h of incubation, supernatants and non-invading cells were removed cautiously with a cotton swab. […] Subsequently, 4 images per chamber were taken with a Nikon Eclipse TS100 fluorescence microscope (Nikon Instruments Europe, Amstelveen, The Netherlands), and the number of invading cells were enumerated using ImageJ software (National Institutes of Health, Bethesda, MD, USA). The invasion rate was determined by comparing the number of invaded cells in the treated samples with the number of invaded cells in the untreated control samples.

[7] = test system: tubulin; assay: Cell-free tubulin polymerisation assay; type: biochemical
Method: To assess the impact of test compound 4a on the microtubular system, a cell-free tubulin polymerisation assay was conducted using a commercially available kit (Cytoskeleton Inc., Denver, CO, USA), largely in accordance with manufacturer’s instructions, though with some modifications. The assay was performed in a pre-heated 96-well plate, with each condition tested in two parallel wells. Two wells were assigned as the experimental control and received 10 µL of general tubulin buffer (GTB), while the next two wells were assigned as the positive control and received a similar volume of 10 µM paclitaxel. Various concentrations of the test compound (50, 150, 300, and 600 µM) were added in similar volumes, and the polymerisation reaction was initiated by adding 100 µL of tubulin to each well. Absorbance readings were measured every minute for 60 min at 340 nm, following a kinetic measurement protocol. A similar experiment was repeated with the absence of glycerol in the reaction mixture and in exclusion of 50, 150 µM of our test compound. […] The maximum rate of tubulin polymerisation (Vmax) was determined as the highest difference between a set of three absorbance values at any two consecutive intervals.

[8] = test system: HeLa cells; assay: Cell cycle analysis using flow cytometry; type: cell-based, human; details: 18 h incubation; 1.25, 2.5, 5.0 and 10 µM
Method: Cell cycle analysis was performed to elucidate a possible mechanism of action of the compound 4a. Cells were seeded in a 12-well plate at a density of 120,000 cells per well and incubated overnight. […] The supernatant from each treatment was collected separately, and the cells were washed with PBS and detached using trypsin. The resulting supernatant containing the cells was centrifuged at 1300 rpm for 5 min. The cells were then washed with PBS and fixed with 70% ice-cold ethanol at −20 °C for 20 min. To stain the DNA content, the cells were treated with 300 µL of staining solution, which consisted of 10 µg/mL PI, 0.1% sodium citrate, 0.1% triton-X, and 10 µg/mL RNase-A, all dissolved in injectable water. The staining process was carried out in the dark for 30 min. The cells were subjected to analysis using a flow cytometer (CytoFLEX-V0-B4-RO, Beckman Coulter, Brea, CA, USA) with a minimum of 10,000 events per sample being evaluated during each analysis. The data obtained were processed using ModFit LT 3.3.11 software (Verity Software House, Topsham, ME, USA). Untreated cells were utilised as the control group. Apoptotic cells were identified as the hypodiploid (subG1) cell population. The cell cycle analysis experiments were conducted twice, with three parallel samples for each condition.

[9] = test system: HeLa cells; assay: MTT assay for cell viability, 24 h; type: cell-based, human; details: concentrations corresponding the IC50 of 4a
Method: The extent of the inhibition of cell proliferation by the test compound was determined using the MTT (3-(4,5-dimethylthiazol-2-yl)-2,5-diphenyltetrazolium bromide) assay. Exponentially growing HeLa cells were seeded into 96-well plates at a density of 1.0 × 10^4 cells per well in 100 µL of media and incubated for 24 h to facilitate cell attachment. Subsequently, the cells were treated with test compounds formulated in 100 µL of media at six different concentrations of compounds ranging, from 0.1 to 30 µmol. The control group received only media treatment. After 24 h of incubation, 22 µL of MTT solution (5 mg/mL in PBS; Duchefa Biochemie BV, Haarlem, The Netherlands) was added and incubated for 4 h at 37 °C in a humidified 5% CO2 environment. The medium was subsequently aspirated, and 100 µL of DMSO was added to dissolve the formazan crystals produced by the intact cell’s mitochondrial enzymes. The mixture was then mechanically shaken for 30 min. Absorbance measurements were taken at 545 nm using a microplate UV-VIS reader (SPECTRO star Nano, BMG Labtech GmbH, Offenburg, Germany), followed by the calculation of the percentage cell viability using the GraphPad Prism 5.01 (GraphPad Software, San Diego, CA, USA). All in vitro experiments were performed twice with five replicates. Stock solutions of the tested substances (10 mM) were prepared in DMSO.

[10] = test system: HeLa cells; assay: Hoechst 33258-propidium iodide fluorescent double staining; type: cell-based, human; details: 1.0, 2.5, 5.0 and 10 μM, 48 h
Method: Fluorescence staining was conducted to observe the morphological changes induced by the apoptotic process in cells treated with the compound 4a. HeLa cell suspension was seeded into 6-well plates at a density of 150,000 cells per well and allowed to repose for 24 h before exposure to different concentrations of our test substance (1.0, 2.5, 5.0, and 10 μM) for 48 h. To distinguish apoptotic and necrotic cell populations, the cells were stained with lipophilic Hoechst 33258 (1 μg/mL, HO) and hydrophilic propidium iodide (3 μg/mL, PI) for 90 min at 37 °C in a CO2 incubator. Following the removal of the remaining dye-containing medium, a Nikon Eclipse TS100 fluorescence microscope (Nikon Instruments Europe, Amstelveen, The Netherlands) was used to capture at least 4 images per condition. The microscope was equipped with suitable optical blocks for Hoechst 33258 (excitation: 360/40 nm bandpass filter, emission: 460/50 nm bandpass filter, and 400 nm dichromatic mirror) and propidium iodide (excitation: 500/20 nm bandpass filter, emission: 520 nm long pass filter, and 515 nm dichromatic mirror). This technique enables differentiation between early apoptosis and secondary necrosis by examining the nuclear morphology and membrane integrity of cells. The HO dye solution readily permeates into the nuclei of all cells, resulting in a uniform blue staining in the nuclei of the viable cells. […]

[11] = test system: HeLa cells; set-up: method as in PMID 35091086; details: HeLa cell line; cited from earlier work
[12] = test system: NIH/3T3 cells; set-up: method as in PMID 35091086; details: read-out: IC50 on non-cancerous mouse fibroblast (NIH/3T3) cells; cited from earlier work

Compound: COc1cc2c(cc1O)CC[C@@H]1[C@@H]2CC[C@]2(C)[C@@H](O)CC[C@@H]12 [Compound 2ME, 2-methoxyestradiol]
- EC50 [1]: 0.0111 µM

Compound: CN(C)Cc1cc2c(cc1O)CC[C@@H]1[C@@H]2CC[C@]2(C)[C@@H](O)CC[C@@H]12 [Compound 4a, 2-[(dimethylamino)methyl]-oestradiol]
- selectivity index (SI) [2]: 15.6
- IC50 [3]: 16.9 µM
- IC50 [4]: 19.2 µM
- EC50 [1]: 0.653 µM
- reduction in the migratory capacity of HeLa cells relative to the control ([5]; 24 h of treatment): 53.9%
- reduction in the migratory capacity of HeLa cells relative to the control ([5]; 48 h of treatment): 39.6%
- decrease in number of invading cells (anti-invasive activity) vs control [6]: more than 95%
- concentration of maximum tubulin polymerisation effect ([7]; absence of glycerol): approximately 300 µM
- effect on tubulin polymerisation relative to the control ([7]; all tested concentrations (50, 150, 300, 600 µM), presence or absence of glycerol): significant increase in tubulin polymerisation
- effect on G2/M phase population [8]: significant cell arrest at the G2/M phase
- effect on hypodiploid sub-G1 population [8]: significant rise in the hypodiploid sub-G1 population
- cell viability change after 24 h incubation [9]: no significant alteration in cell viability
- nuclei emitting intense blue fluorescence (DNA condensation, early apoptosis) [10]: concentration-dependent escalation
- IC50 [11]: 4.53 µM
- IC50 [12]: 70.4 µM
